Measurements from US11231416B2, “Virus-like particle (VLP) based small molecule-protein interaction trap” (VIB VZW, priority 2015, dated 2022).

Target: T1, HSD17B4 (Homo sapiens, UniProt P51659)
T1 construct: endogenous in cells; host or cells: HEK293T
T1 sequence (P51659 1-736): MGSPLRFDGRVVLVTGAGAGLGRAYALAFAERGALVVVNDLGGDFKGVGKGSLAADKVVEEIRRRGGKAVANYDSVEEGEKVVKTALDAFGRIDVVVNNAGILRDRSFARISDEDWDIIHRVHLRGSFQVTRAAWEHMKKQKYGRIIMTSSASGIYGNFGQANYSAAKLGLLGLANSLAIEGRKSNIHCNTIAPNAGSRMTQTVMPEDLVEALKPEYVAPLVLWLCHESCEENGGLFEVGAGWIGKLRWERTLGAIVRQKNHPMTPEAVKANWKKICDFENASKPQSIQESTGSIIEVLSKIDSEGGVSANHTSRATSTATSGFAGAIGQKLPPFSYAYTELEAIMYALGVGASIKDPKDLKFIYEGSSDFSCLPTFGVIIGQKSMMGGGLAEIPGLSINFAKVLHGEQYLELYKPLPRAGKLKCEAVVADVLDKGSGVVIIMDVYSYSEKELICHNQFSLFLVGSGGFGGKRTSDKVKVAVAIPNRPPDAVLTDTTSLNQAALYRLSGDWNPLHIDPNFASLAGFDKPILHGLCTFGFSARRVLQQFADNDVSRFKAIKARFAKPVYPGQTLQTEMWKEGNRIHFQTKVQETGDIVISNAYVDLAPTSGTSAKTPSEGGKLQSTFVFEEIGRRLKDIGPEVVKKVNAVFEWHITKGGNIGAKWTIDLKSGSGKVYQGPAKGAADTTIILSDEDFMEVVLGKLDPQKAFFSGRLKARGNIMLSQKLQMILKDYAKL
Test: Binary MASPIT assay
Format: cell-based
Details: HEK293T cells, 100 ng/ml leptin, 24 hours; FIG. 4
Procedure: The binding of HSD17B4 to tamoxifen was further confirmed using the MASPIT technology. The binary MASPIT assay was essentially performed as described before (Risseeuw et al., 2013). Briefly, HEK293T cells were seeded in black tissue-culture treated 96-well plates at 10.000 cells/well in 100 μl culture medium (DMEM supplemented with 10% fetal calf serum), and grown at 37° C., 8% CO2. Twenty-four hours later cells were transfected with a combination of the pCLG-eDHFR plasmid (Risseeuw et al., 2013), the pMG1-HSD17B4 construct and the pXP2d2-rPAP1-luciferase reporter (Caligiuri et al., 2006). The pMG1-HSD17B4 construct was generated by Gateway transfer of the full size HSD17B4 ORF, obtained as an entry clone in the hORFeome collection, into the Gateway compatible pMG1 prey destination vector as described earlier (Lievens et al., 2009). Twenty-four hours after transfection, cells were either left unstimulated or treated with 100 ng/ml leptin, with or without addition of MTX-PEG6-tamoxifen. Another 24 hours later, luciferase activity was assayed using the Luciferase Assay System kit (Promega).

**Q.** With `CCC(=C(c1ccccc1)c1ccc(OCCN(C)Cc2cn(CCOCCOCCOCCOCCOCCNC(=O)CCC(NC(=O)c3ccc(N(C)Cc4cnc5nc(N)nc(N)c5n4)cc3)C(=O)O)nn2)cc1)c1ccccc1` (stereo not shown) [MTX-PEG6-tamoxifen] as the compound, how does the “luciferase activity (MASPIT signal)” value read?
**A.** increased luciferase activity in a dose-dependent manner
